Test results taken from patent US20220233469A1, “METHODS, COMPOSITIONS AND DEVICES FOR TREATING NEUROINFLAMMATORY CONDITIONS” (ALYRA BIOTECH PTY LTD, priority 2019, published 2022).
“Also recorded” adds a separate entry of the source.

Assays:
HEK293/Null2 = assay: TLR-/NLR- control cell line HEK293/Null2 stimulated with TNFa; assay type: cell-based, human; conditions: stimulated with TNFa at 10 ng/mL
Protocol: (§1) Toll-Like Receptor (TLR), NOD-Like Receptor (NLR) and C-Type Lectin Receptor (CLR) stimulation were tested by assessing NF-κB activation in HEK293 cells expressing a given TLR, NLR or CLR. The activity of the test articles was tested at one concentration and compared to control ligands. These steps were performed in triplicate. In a 96-well plate (200 μL total volume) containing the appropriate cells (50,000-75,000 cells/well), 20 μL of the test article or the positive control ligand was added to the wells. For the antagonist assay, the test article was incubated with the cells, at 37° C. with 5% CO2, for 30 minutes prior to the addition of the positive control ligand to the wells. The media added to the wells was designed for the detection of NF-κB induced SEAP expression. After a 16-24 hr incubation the optical density (OD) was read at 650 nm on a Molecular Devices SpectraMax 340PC absorbance detector.

Human TLR7 = molecular target: T1, Human TLR7 (Homo sapiens, UniProt Q9NYK1); assay: Human TLR antagonist screening: NF-κB activation in HEK293 cells, TLR7; assay type: cell-based; conditions: antagonist mode; test article 1 μM, +CL307 10 ng/ml; No Sample 13, Control- 1
T1 construct: expressed in transfected cells; host or cells: HEK293
T1 sequence (Q9NYK1 27-1049): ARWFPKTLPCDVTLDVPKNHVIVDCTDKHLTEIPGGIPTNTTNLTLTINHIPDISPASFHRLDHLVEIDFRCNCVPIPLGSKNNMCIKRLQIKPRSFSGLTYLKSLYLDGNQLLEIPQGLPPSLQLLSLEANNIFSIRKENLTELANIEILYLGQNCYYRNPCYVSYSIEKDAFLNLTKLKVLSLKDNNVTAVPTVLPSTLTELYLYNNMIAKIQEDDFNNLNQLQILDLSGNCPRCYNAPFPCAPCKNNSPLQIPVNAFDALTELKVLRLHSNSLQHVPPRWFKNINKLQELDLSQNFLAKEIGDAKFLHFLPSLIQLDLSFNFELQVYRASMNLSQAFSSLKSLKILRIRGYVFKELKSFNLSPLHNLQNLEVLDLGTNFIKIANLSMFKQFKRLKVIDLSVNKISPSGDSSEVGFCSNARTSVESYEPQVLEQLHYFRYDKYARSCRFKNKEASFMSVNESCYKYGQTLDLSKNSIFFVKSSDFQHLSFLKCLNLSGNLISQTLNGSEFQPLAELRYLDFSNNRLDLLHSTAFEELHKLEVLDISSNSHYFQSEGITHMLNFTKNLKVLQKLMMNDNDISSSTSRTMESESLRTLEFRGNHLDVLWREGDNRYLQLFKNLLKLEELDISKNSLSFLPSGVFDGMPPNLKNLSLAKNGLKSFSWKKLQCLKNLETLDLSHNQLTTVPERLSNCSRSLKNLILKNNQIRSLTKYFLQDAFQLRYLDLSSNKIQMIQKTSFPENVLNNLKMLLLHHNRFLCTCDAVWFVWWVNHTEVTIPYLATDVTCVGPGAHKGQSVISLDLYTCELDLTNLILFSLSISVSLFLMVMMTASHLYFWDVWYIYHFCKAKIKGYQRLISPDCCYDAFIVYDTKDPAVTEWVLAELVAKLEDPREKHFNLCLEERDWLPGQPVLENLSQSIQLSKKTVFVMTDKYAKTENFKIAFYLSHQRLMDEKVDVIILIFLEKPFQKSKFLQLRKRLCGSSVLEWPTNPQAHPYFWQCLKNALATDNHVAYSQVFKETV
Protocol: as §1, with “triplicate. […] CL307 at 1 μg/mL Antagonist: 10 ng/mL.” for “triplicate.”, “expression.” for “expression. After a 16-24 hr incubation the optical density (OD) was read at 650 nm on a Molecular Devices SpectraMax 340PC absorbance detector.”

HEK293/Null1 = assay: TLR-/NLR- control cell line HEK293/Null1 stimulated with TNFa; assay type: cell-based, human; conditions: stimulated with TNFa at 10 ng/mL
Protocol: as §1

dorsal horn microglia = assay: Activation of dorsal horn microglia (Iba1 immunofluorescence) after intrauterine LPS in mice; assay type: in vivo, mouse; conditions: for LPS-induced activation of spinal microglia (Iba1 staining, dorsal horn): intrauterine, given with LPS (100 ug/kg) once per estrus cycle over three cycles, Amitriptyline 28 ug/kg, TAK-242 36 ug/kg
Description: (§2) We first recognised that neuroinflammatory conditions of the nervous system may be, at least in part, due to activation of the innate immune system within the uterus resulting in activation of glial cells in the dorsal horn of the spinal cord. To model this in mice, a study was undertaken administering LPS (lipopolysaccharide), a potent immune activator, to the uterus of mice once per estrus cycle over three cycles.
(§3) Studies were also undertaken to investigate whether a small dose of amitriptyline, an inhibitor of the pattern recognition receptors TLR, NOD, CLR, RIG-1 and MDA-5, administered with LPS within the uterus could prevent LPS-induced activation of spinal glial cells. To confirm that the amitriptyline was acting, at least in part, by blocking TLRs, an investigation was also conducted on mice given a small dose of pure TLR4 blocker-TAK-242—with LPS.
(§4) The Nonsurgical Embryo Transfer Device (Paratech, USA) was used to allow insertion of fluid into the uterus with brief, mild discomfort to the mouse, and no need for anaesthesia. Following three estrus cycles, glial activation in the dorsal horn of the spinal cord was measured using immunofluorescence. Activation of dorsal horn astrocytes was assessed using GFAP. Activation of dorsal horn microglia was assessed using Iba1. We compared the activation of spinal glia in mice with intrauterine administration of saline only, saline and LPS (100 ug/kg), saline LPS (100 ug/kg) and Amitriptyline (28 ug/kg), and saline LPS (100 ug/kg) and TAK-242 (36 ug/kg).
(§5) The spinal cord was assessed using immunohistochemistry techniques across levels T10, T11, T12, T13, L1, L2, L3, L4, L5, L6, S1 and S2 where T represents the thoracic segment of the spinal cord, L represents the lumbar segment of the spinal cord and S represents the sacral segment of the spinal cord. The regions of interest in the dorsal horn include Laminae I, II, III and IV. Changes in spinal glial reactivity are causally linked to all known models of neuroinflammatory medical conditions.

[1] = Facial Grimace Score after intrauterine LPS in mice; assay type: in vivo, mouse; conditions: mice, 24 hours following the final LPS stimulation
spinal glial cells = assay: Spinal glial activation after intrauterine LPS in mice; assay type: in vivo, mouse
Description: as §2, §3, §4, §5

dorsal horn astrocytes = assay: Activation of dorsal horn astrocytes (GFAP immunofluorescence) after intrauterine LPS in mice; assay type: in vivo, mouse; conditions: for LPS-induced activation of spinal astrocytes (GFAP staining, dorsal horn): intrauterine, given with LPS (100 ug/kg) once per estrus cycle over three cycles, Amitriptyline 28 ug/kg, TAK-242 36 ug/kg
Description: as §2, §3, §4, §5

[2] = intrauterine LPS (100 ug/kg) compared with saline

CNCCC=C1c2ccccc2CCc2ccccc21 [Nortriptyline]
effect on control cell line HEK293/Null2 (HEK293/Null2): slight inhibitory effect | Fold Induction (Human TLR7): slight potentiating effect | effect on control cell line HEK293/Null1 (HEK293/Null1): slight inhibitory effect

CCOC(=O)C1=CCCC[C@H]1S(=O)(=O)Nc1ccc(F)cc1Cl [TAK-242]
LPS-induced activation of spinal microglia (Iba1 staining, dorsal horn) (dorsal horn microglia): prevented LPS-induced activation of spinal astrocytes and microglia; also recorded: reduced spinal activation of microglia below baseline levels | LPS-induced activation of spinal microglia (Iba1 staining, dorsal horn) (dorsal horn microglia; listed as TAK242): blocked the impact of intrauterine LPS at multiple levels of the spinal cord and reduced microglia reactivity to basal levels; also recorded: appears to reduce microglia reactivity to basal levels | Facial Grimace Score ([1]; intrauterine LPS with Amitriptyline or TAK242): reduced grimace scores non-significantly | LPS-induced spinal glial activation (spinal glial cells; intrauterine co-administration with LPS (100 ug/kg), Amitriptyline 28 ug/kg, TAK-242 36 ug/kg): effect was also prevented; also recorded: block spinal glial activation following intrauterine administration of LPS | LPS-induced activation of spinal astrocytes (GFAP staining, dorsal horn) (dorsal horn astrocytes): prevented LPS-induced activation of spinal astrocytes and microglia | LPS-induced activation of spinal astrocytes (GFAP staining, dorsal horn) (dorsal horn astrocytes; listed as TAK242): blocked the impact of intrauterine LPS at multiple levels of the spinal cord and reduced astrocytic reactivity to below basal levels; also recorded: blocks the impact of intrauterine LPS at multiple levels of the spinal cord and appears to reduce astrocytic reactivity to below basal levels | integrated density of GFAP staining (activated astrocytes within the dorsal horn) (dorsal horn astrocytes; level of T12, intrauterine LPS with Amitriptyline or TAK-242 vs LPS, p=0.0002): significantly reduce LPS effect

lipopolysaccharide [LPS]
activation of spinal microglia (Iba1 staining) (dorsal horn microglia; [2]): induced activation of spinal astrocytes and microglia; also recorded: localised increase in Iba1 microglial staining throughout select levels of the spinal cord; also recorded: induced activation of microglia with inconsistent effect across levels | Facial Grimace Score ([1]; intrauterine LPS vs saline): caused a significant increase in the presentation of Grimace behaviours in animals | activation of spinal glial cells (spinal glial cells; intra-uterine LPS): activate spinal glial cells, including astrocytes and microglia | activation of spinal astrocytes (GFAP staining) (dorsal horn astrocytes; [2]): induced activation of spinal astrocytes and microglia; also recorded: substantial increase in GFAP astrocyte staining throughout multiple levels of the spinal cord; also recorded: induced activation of astrocytes at multiple levels of the spinal levels compared with saline
